Patent US7883708B2, “Substance derived from basidiomycetes culture, method for producing it and its use” (Amino Up Chemical Co., Ltd., priority 1999, dated 2011)
Values after ≈ are worked out from the molar mass of the structure shown.

Experiments:
Assay in all cases: 50% growth suppression concentration (IC50) of tumor cells (MTT)
Type in all cases: cell-based
[1] = test system: Du145 human prostatic cells; details: DU-145, 48 hours, read-out: IC50 (μg/ml) Du145
Source text: (§1) 3LL mouse lung cancer cells, Colon 26 mouse colorectal cancer cells, PC3 human prostatic cancer cells, Du145 human prostatic cells, and LNCAP human prostatic cells were used and 50% suppression concentrations (IC50) of Invention Substance 1, genistein standard preparation (produced by Sigma) and basidiomycetes culture (product obtained by cultivating basidiomycetes in the absence of isoflavones-containing material under the same conditions as in Example 1) on these cells were examined.
(§2) That is, Invention Substance 1, genistein standard preparation or basidiomycetes culture was suspended in distilled water and were autoclaved and added to the cells in a continuously varied concentration of from 1,000 μg/ml to 0.1 μg/ml. The tumor cell suspension was adjusted to 1-2×10^5 cells/well with DMEM medium containing 10% FBS and cultivated at 37° C. for 48 hours. Then, after addition of Invention Substance 1 or genistein standard preparation, the cells were further cultivated for additional 48 hours, followed by examining cell growth by the MTT method using a microplate reader. Lower numerical values indicate that 50% suppression of the growth of cultured cancer cells is possible at lower concentrations.

[2] = test system: PC3 human prostatic cancer cells; details: 48 hours, read-out: IC50 (μg/ml) PC3
Source text: as §1, §2

[3] = test system: Colon 26 mouse colorectal cancer cells; details: 48 hours, read-out: IC50 (μg/ml) Colon 26
Source text: as §1, §2

[4] = test system: LNCAP human prostatic cells; details: 48 hours, read-out: IC50 (μg/ml) LNCaP
Source text: as §1, §2

[5] = test system: 3LL mouse lung cancer cells; details: 48 hours, read-out: IC50 (μg/ml) 3LL
Source text: as §1, §2

In the case of `O=c1c(-c2ccc(O)cc2)coc2cc(O)cc(O)c12` [Genistein standard preparation, genistein], the IC50 [1] is reported as 55.3 µg/mL (≈ 205 µM), the IC50 [2] is reported as 35.8 µg/mL (≈ 132 µM) and the IC50 [3] is reported as 51.2 µg/mL (≈ 190 µM). For the same compound, the IC50 [4] was 69.4 µg/mL (≈ 257 µM) and the IC50 [5] was 31.8 µg/mL (≈ 118 µM).
